Assays:
[1] = Safety evaluation, blood biochemical analysis; assay type: in vivo, Kunming mice; settings: 24 hours after tail vein injection, versus PBS group
Protocol: Normal Kunming mice were selected, and PBS, CDDP, PA-Mn-BSA and PA-Mn/Pt-BSA were separately injected via the tail vein of the mice. Blood biochemical analysis was performed 24 hours later.

[2] = system: PC-3 tumor-bearing mouse model; experiment: In vivo tumor inhibitory effect; set-up: species or system mice; settings: day 14 after tail vein injection, controls PBS, CDDP, PA-Mn-BSA
Protocol: A PC-3 tumor-bearing mouse model was constructed. […] Tumor size was measured every other day for 14 consecutive days after injection to observe the tumor growth inhibitory effect in different groups. Tumors were dissected and collected from the mice on day 14 for size observation.

[NH2][Pt]([NH2])([Cl])[Cl] [CDDP, cisplatin]
level of alanine transaminase (ALT) [1]: significantly higher
level of aspartate transaminase (AST) [1]: significantly higher
level of blood urea nitrogen (BUN) [1]: significantly higher
level of creatinine (CRE) [1]: significantly higher
tumor volume of dissected tumors [2]: smaller tumor volume than the PBS group
